Data on 25 sequences can be found in patent US11981944B2, “Immunogenic arginase peptides” (IO Biotech ApS, priority 2016, dated 2024).

Type in all cases: cell-based, human
For test [1], the system named is peripheral blood mononuclear cells (PBMC). Nature of the test: IFN-gamma ELISPOT secretion assay on PBMC (Example 1). Particulars: for immune responses against overlapping 20mer peptides: PBMC from three cancer patients, FIG. 3; for specific T-cell responses against Arg-derived peptide: IFN-gamma ELISPOT, PBMC from six melanoma patients, FIG. 1.
Test [2] concerns PBMCs from healthy donors or cancer patients. The test can be described thus: IFNγ ELISPOT on PBMCs after one week peptide and IL-2 stimulation (Example 2). The note with it: for spontaneous IFNγ ELISPOT responses against 20-mer library peptides: cancer (melanoma) patient PBMCs, FIG. 9A. The protocol: PBMCs from healthy donors or cancer patients were stimulated with 80 μg of arginase-derived peptides and 120 U/ml IL-2 (Peprotech, London, UK, cat. 200-02) for a week. 4-6×10^5 PBMCs were then placed in the bottom of ELISPOT plate (nitrocellulose bottomed 96-well plates by MultiScreen MAIP […]; Millipore, cat. MSIPN4W50) pre-coated with IFN-y capture Ab (Mabtech, cat. 3420-3-1000) and 1-10 μg of arginase derived peptides were added. PBMCs from each patient and donors were set up in duplicates or triplicates for peptide and control stimulations. Cells were incubated in ELISPOT plates in the presence of an antigen for 14-16 hours after which they are washed off and secondary biotinylated Ab (Mabtech, cat. 3420-6-1000) was added. After 2 h incubation unbound secondary antibody was washed off and streptavidin conjugated alkaline phosphatase (AP) (Mabtech, cat. 3310-10) was added for 1 h. Next, unbound conjugated enzyme is washed off and the assay is developed by adding BCIP/NBT substrate (Mabtech, cat. 3650-10). Developed ELISPOT plates were analysed on CTL ImmunoSpot S6 Ultimate-V analyzer using Immunospot software v5.1. Responses were calculated as the difference between average numbers of spots in wells stimulated with Arginase-1 peptides and control wells. We divided the entire arginase-1 protein sequence into overlapping 20-amino-acid-long peptides, generating a library of 31 peptides covering the whole sequence (SEQ ID NOs 18-48)). Each peptide in the library overlapped with the first 10 amino acids of the following peptide. Using this arginase peptide library and the IFNγ ELISPOT assay, we next screened PBMCs from melanoma patients and healthy donors for spontaneous responses (FIGS. 9A and 9B). The PBMCs were stimulated for one week with a pool of 3-4 adjacent 20-mer arginase library peptides and low-dose IL-2 (120 U/mL). They were then set up for an IFNγ ELISPOT assay to screen for responses against each 20-mer peptide separately. […] Among these overlapping peptides, […]-200), and Arg(191-210) spanned a 50-amino-acid-long region that was deemed a hot-spot region since nearly all patients harbored a response against one or more of these peptides (FIG. 9A). The selected eight peptides were further used to screen for spontaneous immune responses against arginase-1 in PBMCs from eight healthy donors using IFNγ ELISPOT. […] Since we most frequently observed responses against arginase-1 peptides from the hot-spot region, we next analyzed whether longer peptides covering the same sequence could be used instead of four 20-mers. […] We then divided the arginase-1 hot-spot region into two 30-mer peptides that overlapped by 10 amino acids (peptides labelled by reference to start and end position): […]-190) and […]-210). These 30-mer peptides were used to check for responses in selected PBMCs from cancer patients and healthy donors, which had previously shown responses against the 20-mer hot-spot peptides. The PBMCs were stimulated for one week with either […]-190) or […]-210) in the presence of IL-2, and were then used in IFNγ ELISPOT.

The test system of test [3] is TILs from eight melanoma patients. The test can be described thus: Intracellular staining for IFNγ and TNFα release in melanoma TILs. The protocol:
Flow cytometry analysis was performed on a FACSCantoTM II (BD Biosciences, San Jose CA, USA). Intracellular staining of cell cultures was performed after the cells were stimulated with 20-mere peptides for 5 hours or 30-mere peptides for 8h (BD GolgiPlugTM cat. 555029, was added after the first hour). The cells were then stained for surface markers, then washed and permeabilized by using Fixation/Permeabilization and Permeabilization Buffer (eBioscience, cat. 00-5123-43), according to manufacturer's instructions. Antibodies used: IFNγ-APC (cat. 341117), TNFα-BV421 (cat. 562783), CD4-FITC (cat. 347413), CD8-PerCP (cat. 345774) (all from BD Biosciences). Dead cells were stained using FVS510 (564406, BD Biosciences) according to manufacturer's instructions. To investigate the potential presence of arginase-specific T cells among tumor-infiltrating lymphocytes in cancer, we screened TILs from eight melanoma patients for responses against arginase-1 derived peptides. To this end, we performed intracellular staining for IFNγ and TNFα release in response to peptide stimulation. TILs were thawed and rested overnight without IL-2, and then stimulated for 5 h with three hot-spot immunogenic region 20-mer peptides (peptides labelled by reference to start and end position): […]-200). […] The percentage of IFNγ-producing cells was higher for […]-190) and […]-200) compared to […]-180), and the response against […]-200) was almost twice that against […]-180).

Consider “SLGKTPEEVTRTVNTAVAIT (Peptide fragment of human Arginase 1) [Arg1-29, positions 281-300 of human Arginase 1]”, for which the “immune responses against overlapping 20mer peptides” value (from here on “immune responses”) in test [1] is listed as “Frequent immune responses were detected”.
As for “VMEETLSYLLGRKKRPIHLS (Peptide fragment of human Arginase 1) [Arg1-22, positions 211-230 of human Arginase 1]”, in test [1], the “immune responses” value is “Frequent immune responses were detected”.
As to “HGQPVSFLLKELKGKIPDVP (Peptide fragment of human Arginase 1) [Arg1-15, positions 141-160 of human Arginase 1]”, the “immune responses” value in test [1] is listed as “Frequent immune responses were detected”.
Regarding “AKDIVYIGLRDVDPGEHYIL (Peptide fragment of human Arginase 1) [Arg1-18, positions 171-190 of human Arginase 1]”, the “immune responses” value in test [1] was “Frequent immune responses were detected”. Moreover, the “spontaneous IFNγ ELISPOT responses against 20-mer library peptides” value (shortened to “spontaneous IFNγ ELISPOT responses”) in test [2] is “highest and most abundant responses”. Besides, in test [3] (CD4+ T cells in TILs, 5 h stimulation), the “percentage of IFNγ-producing cells compared to Arg(161-180)” value is recorded as “higher”. The “IFNγ or TNFα release from CD8+ T cells” value in test [3] (TILs, 5 h peptide stimulation) is recorded as “No IFNγ or TNFα release was observed”. Further, the “IFNγ release from CD4+ T cells” value in test [3] (one of the TIL cultures, 5 h peptide stimulation, FIG. 10A) was “IFNγ was released from CD4+ T cells”.
With “HLSFDVDGL (Peptide fragment of human Arginase 1) [Arg6, positions 228-236 of human Arginase 1]”, the “specific T-cell responses against Arg-derived peptide” value (“specific T-cell responses” for short) in test [1] is “Strong responses”.
For “ELKGKIPDVPGFSWVTPCIS (Peptide fragment of human Arginase 1) [Arg1-16, positions 151-170 of human Arginase 1]”, the “immune responses” value in test [1] is reported as “Frequent immune responses were detected”.
For the sequence “GRKKRPIHLSFDVDGLDPSF (Peptide fragment of human Arginase 1) [Arg1-23, positions 221-240 of human Arginase 1]”, the “immune responses” value in test [1] was “Frequent immune responses were detected”. Besides, the “spontaneous IFNγ ELISPOT responses” value in test [2] was “highest and most abundant responses”.
For “DVDPGEHYILKTLGIKYFSMTEVDRLGIGK (Peptide fragment of human Arginase 1) [Arg(181-210), 30-mer, positions 181-210 of human Arginase 1]”, in test [2] (selected PBMCs from cancer patients and healthy donors, one week stimulation with IL-2, FIG. 10B, 10C), the “IFNγ ELISPOT responses against longer hot-spot peptides” value is recorded as “lower than those against the overlapping 20-mer peptides”.
Turning to “GDLPFADIPNDSPFQIVKNP (Peptide fragment of human Arginase 1) [Arg1-6, positions 51-70 of human Arginase 1]”, the “immune responses” value in test [1] was “Frequent immune responses were detected”.
As to “TPLTTTSGNLHGQPVSFLLK (Peptide fragment of human Arginase 1) [Arg1-14, positions 131-150 of human Arginase 1]”, in test [1], the “immune responses” value is recorded as “Frequent immune responses were detected”.
Turning to “VLGGDHSLAI (Peptide fragment of human Arginase 1) [Arg15, positions 96-105 of human Arginase 1]”, in test [1], the “specific T-cell responses” value is “Strong responses”.
On to “SLGKTPEEV (Peptide fragment of human Arginase 1) [Arg7, positions 281-289 of human Arginase 1]”, for which the “specific T-cell responses” value in test [1] is on record as “Strong responses”.
For the sequence “VMEETLSYL (Peptide fragment of human Arginase 1) [Arg5, positions 211-219 of human Arginase 1]”, in test [1], the “specific T-cell responses” value is “Strong responses”.
Turning to “DIMEVNPSL (Peptide fragment of human Arginase 1) [Arg10, positions 274-282 of human Arginase 1]”, in test [1], the “specific T-cell responses” value is on record as “Strong responses”.
For the sequence “DSPFQIVKNPRSVGKASEQL (Peptide fragment of human Arginase 1) [Arg1-7, positions 61-80 of human Arginase 1]”, the “immune responses” value in test [1] is listed as “Frequent immune responses were detected”.
Consider LLKELKGKI [Arg3], for which the “specific T-cell responses” value in test [1] is reported as “Strong responses”.
For the sequence “MSAKSRTIGIIGAPFSKGQP (Peptide fragment of human Arginase 1) [Arg1-1, positions 1-20 of human Arginase 1]”, the “immune responses” value in test [1] is on record as “Frequent immune responses were detected”.
On to “KTLGIKYFSMTEVDRLGIGK (Peptide frgment of human Arginase 1) [Arg1-20, positions 191-210 of human Arginase 1]”, for which the “immune responses” value in test [1] was “Frequent immune responses were detected”. In test [2], the “spontaneous IFNγ ELISPOT responses” value was “highest and most abundant responses”.
On to “TEEIYKTGLLSGLDIMEVNP (Peptide fragment of human Arginase 1) [Arg1-27, positions 261-280 of human Arginase 1]”, for which the “immune responses” value in test [1] is listed as “Frequent immune responses were detected”. The “spontaneous IFNγ ELISPOT responses” value in test [2] is “highest and most abundant responses”.
As for “HARVHPDLGVIWVDAHTDIN (Peptide fragment of human Arginase 1) [Arg1-12, positions 111-130 of human Arginase 1]”, the “immune responses” value in test [1] is given as “Frequent immune responses were detected”. In addition, the “spontaneous IFNγ ELISPOT responses” value in test [2] was “highest and most abundant responses”.
As to “LVLGGDHSL (Peptide fragment of human Arginase 1) [Arg2, positions 95-103 of human Arginase 1]”, in test [1], the “specific T-cell responses” value is given as “Strong responses”.
Take “GLLSGLDIM (Peptide fragment of human Arginase 1) [Arg9, positions 268-276 of human Arginase 1]”: the “specific T-cell responses” value in test [1] is recorded as “Strong responses”.
Turning to “LLSGLDIMEV (Peptide fragment of human Arginase 1) [Arg11, positions 269-278 of human Arginase 1]”, in test [1], the “specific T-cell responses” value is “Strong responses”.
Turning to “LRKAGLLEKLKEQECDVKDY (Peptide fragment of human Arginase 1) [Arg1-4, positions 31-50 of human Arginase 1]”, the “immune responses” value in test [1] is “Frequent immune responses were detected”. Further, in test [2], the “spontaneous IFNγ ELISPOT responses” value is “highest and most abundant responses”.
Take “YLLGRKKRPI (Peptide fragment of human Arginase 1) [Arg14, positions 218-227 of human Arginase 1]”: in test [1], the “specific T-cell responses” value is “Strong responses”.
